Experimental data: patent US8367873B2, “Phenyl-substituted bicyclooctane-1,3-dione derivatives” (Bayer Cropscience AG, priority 2008, dated 2013)

Tests used:
Assay type in all cases: in vivo
Alopecurus myosuroides [1] = assay: Herbicidal post-emergence action; conditions: post-emergence method, 80 g/ha
Procedure, shortened: (§1)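 Post-emergence spray test: wettable-powder formulations are applied at different amounts to one-leaf-stage plants in 600 l/ha water containing 0.2% wetting agent. After roughly three weeks in the greenhouse, percent effect is rated visually relative to untreated controls.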

Lolium multiflorum [2] = assay: Herbicidal post-emergence action; conditions: post-emergence method, 80 g/ha
Procedure, shortened: as §1

Echinocloa crus-galli [3] = assay: Herbicidal post-emergence action; conditions: post-emergence method, 80 g/ha
Procedure, shortened: as §1

Setaria viridis [4] = assay: Herbicidal post-emergence action; conditions: post-emergence method, 80 g/ha
Procedure, shortened: as §1

[5] = test system: monocotylidonous and dicotylidonous weed and crop plants; assay: Herbicidal pre-emergence action (other test plants); conditions: pre-emergence method, 80 g/ha, greenhouse, visual assessment vs untreated controls
Text: Seeds of monocotylidonous and dicotylidonous weed and crop plants are placed in sandy loam in wood fibre pots and covered with soil. The test compounds, formulated in the form of wettable powders (WP), are then, as an aqueous suspension with a water application rate of 600 l/ha (converted), with 0.2% of wetting agent added, applied to the surface of the covering soil in different amounts.
After the treatment, the pots are placed in a greenhouse and kept under good growth conditions for the test plants. The visual assessment of the emergence damage on the test plants is carried out after a trial period of three weeks by comparison with the untreated controls (herbicidal effect in percent: 100% effect=the plants have died, 0% effect=like control plants).

Alopecurus myosuroides [6] = assay: Herbicidal pre-emergence action; conditions: pre-emergence method, 80 g/ha, greenhouse, visual assessment vs untreated controls
Procedure, shortened: (§2)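 Test compounds, as wettable powder suspensions with 0.2% wetting agent at a water rate of 600 l/ha, were applied in different amounts to the covering soil over freshly sown seeds in sandy loam. Emergence damage was rated visually in percent against untreated plants after three weeks under greenhouse conditions.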

Lolium multiflorum [7] = assay: Herbicidal pre-emergence action; conditions: pre-emergence method, 80 g/ha, greenhouse, visual assessment vs untreated controls
Procedure, shortened: as §2

Echinocloa crus-galli [8] = assay: Herbicidal pre-emergence action; conditions: pre-emergence method, 80 g/ha, greenhouse, visual assessment vs untreated controls
Procedure, shortened: as §2

Setaria viridis [9] = assay: Herbicidal pre-emergence action; conditions: pre-emergence method, 80 g/ha, greenhouse, visual assessment vs untreated controls
Procedure, shortened: as §2

[10] = test system: monocotylidonous and dicotylidonous weed and crop plants; assay: Herbicidal post-emergence action (other test plants); conditions: post-emergence method, 80 g/ha
Procedure, shortened: as §1

Row | SMILES | herbicidal effect against ALOMY (Alopecurus myosuroides) (Alopecurus myosuroides [1]) [%] | herbicidal effect against LOLMU (Lolium multiflorum) (Lolium multiflorum [2]) [%] | herbicidal effect against ECHCG (Echinochloa crus-galli) (Echinocloa crus-galli [3]) [%] | herbicidal effect against SETVI (Setaria viridis) (Setaria viridis [4]) [%] | herbicidal effect AVEFA [5] [%] | herbicidal effect ALOMY (Alopecurus myosuroides [6]) [%] | herbicidal effect LOLMU (Lolium multiflorum [7]) [%] | herbicidal effect ECHCG (Echinocloa crus-galli [8]) [%] | herbicidal effect SETVI (Setaria viridis [9]) [%] | herbicidal effect against AVEFA (Avena fatua) [10] [%]
1 | C=C1COC2(C[C@@H]3C(OC(=O)OCC)=C(c4c(CC)cc(C)cc4CC)C(=O)[C@@H]3C2)OC1 (relative stereo) [I-c-12] | 90 | 100 | 100 | 100 | 80 | 100 | 100 | 100 | 100 | 90
2 | C#CC(C)ON=C1C[C@@H]2C(O)=C(c3c(CC)cc(C)cc3CC)C(=O)[C@@H]2C1 (relative stereo) [I-a-32] | 80 | 100 | 100 | 20 | 60 | 90 | 100 | 40 | 20 | 0
3 | CCc1cc(C)cc(CC)c1C1=C([O-])C2CC3(CC2C1=O)OC(C)CC(C)O3.[Na+] (centres unmarked) [I-f-2] | 80 | 100 | 100 | 90 | 50 | 90 | 100 | 90 | 60 | 90
4 | COc1cc(C)cc(C)c1C1=C(OC(=O)C(C)C)C2CC3(CC2C1=O)OCCO3 (centres unmarked) [I-b-65] | 90 | 100 | 100 | 100 | 70 | 60 | 100 | 90 | 70 | 90
5 | COc1cc(C)cc(C)c1C1=C([O-])C2CC3(CC2C1=O)OCCO3.[Na+] (centres unmarked) [I-f-6] | 100 | 100 | 100 | 100 | 90 | 60 | 90 | 70 | 70 | 80
6 | CCc1cc(C)cc(CC)c1C1=C(O)C2CC(=NOCC(C)C)CC2C1=O (centres unmarked) [I-a-69] | 90 | 100 | 100 | 80 | 70 | 50 | 70 | 20 | 80 | 30
7 | CCOC(=O)OC1=C(c2c(CC)cc(C)cc2CC)C(=O)C2CC(=NOCC3CC3)CC12 (centres unmarked) [I-c-40] | 100 | 100 | 100 | 100 | 60 | 80 | 80 | 0 | 40 | 0
8 | CCc1cc(C)cc(CC)c1C1=C([O-])C2CC3(CC2C1=O)OCC(OCc1ccccc1)CO3.[Na+] (centres unmarked) [I-f-16] | 100 | 100 | 100 | 100 | 80 | 80 | 90 | 60 | 90 | 100
9 | CCOC(=O)OC1=C(c2c(C)cc(C)cc2OC)C(=O)C2CC3(CC12)OCCCO3 (racemic) [I-c-63] | 100 | 100 | 100 | 100 | 70 | 80 | 100 | 50 | 50 | 100
10 | CCc1cc(C)cc(C)c1C1=C(OC(=O)OC(C)C)C2CC3(CC2C1=O)OCC=CCO3 (racemic) [I-c-74] | 60 | 100 | 100 | 100 | 60 | 70 | 100 | 100 | 100 | 70
11 | CCc1cc(C)cc(CC)c1C1=C([O-])C2CC3(CC2C1=O)OCC(OC)CO3.[Na+] (centres unmarked) [I-f-13] | 100 | 100 | 100 | 100 | 0 | 100 | 100 | 100 | 90 | 100
12 | CCc1cc(C)cc(C)c1C1=C(O)C2CC3(CC2C1=O)OCCO3 (centres unmarked) [I-a-57] | 100 | 100 | 100 | 100 | 60 | 80 | 100 | 100 | 90 | 100
13 | CCOC(=O)OC1=C(c2c(CC)cc(C)cc2CC)C(=O)[C@@H]2CC3(C[C@H]12)OCC=CCO3 (relative stereo) [I-c-11] | 80 | 90 | 100 | 90 | 70 | 90 | 90 | 100 | 90 | 80
14 | CCc1cc(C)cc(CC)c1C1=C(O)C2CC3(COC(C)O3)CC2C1=O (mixture of isomers) [I-a-7] | 90 | 100 | 100 | 90 | 80 | 100 | 90 | 70 | 70 | 60
15 | Cc1cc(C)c(C2=C(O)C3CC4(CC3C2=O)OCCCCO4)c(C)c1 (centres unmarked) [I-a-40] | 80 | 90 | 90 | 80 | 40 | 50 | 100 | 80 | 50 | 60
16 | CCc1cc(C)cc(CC)c1C1=C([O-])C2CC3(CC2C1=O)OCC=CCO3.[Na+] (centres unmarked) [I-f-12] | 100 | 100 | 100 | 100 | 70 | 100 | 70 | 100 | 90 | 100
17 | Cc1cc(C)c(C2=C(OC(=O)C(C)C)C3CC4(CC3C2=O)OCC(C)CO4)c(C)c1 (centres unmarked) [I-b-43] | 100 | 100 | 90 | 100 | 40 | 90 | 90 | 20 | 60 | 80
